From publication PMC9796306, “Multiple detection of both attractants and repellents by the dCache‐chemoreceptor SO_1056 of Shewanella oneidensis” (The Febs Journal, 2022)

Assays:
[1] = target: T1, MBP-LBD1056 (ligand-binding domain of MCP SO_1056) (Shewanella oneidensis, UniProt Q8EHZ8); test: isothermal titration calorimetry; details: read-out: apparent KD
T1 sequence (Q8EHZ8 29-278): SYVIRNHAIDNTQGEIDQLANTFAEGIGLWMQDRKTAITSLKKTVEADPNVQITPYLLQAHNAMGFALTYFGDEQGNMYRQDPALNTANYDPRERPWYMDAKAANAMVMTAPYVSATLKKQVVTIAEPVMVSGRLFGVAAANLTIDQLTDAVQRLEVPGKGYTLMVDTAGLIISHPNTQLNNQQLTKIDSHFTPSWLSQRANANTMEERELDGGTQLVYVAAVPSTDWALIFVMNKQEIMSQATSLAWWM

[2] = target: MBP-LBD1056 (ligand-binding domain of MCP SO_1056) (Shewanella oneidensis, UniProt Q8EHZ8, N170D)
Sequence of MBP-LBD1056 (ligand-binding domain of MCP SO_1056) (Shewanella oneidensis, UniProt Q8EHZ8, N170D) (Q8EHZ8 entry or part of it N170D): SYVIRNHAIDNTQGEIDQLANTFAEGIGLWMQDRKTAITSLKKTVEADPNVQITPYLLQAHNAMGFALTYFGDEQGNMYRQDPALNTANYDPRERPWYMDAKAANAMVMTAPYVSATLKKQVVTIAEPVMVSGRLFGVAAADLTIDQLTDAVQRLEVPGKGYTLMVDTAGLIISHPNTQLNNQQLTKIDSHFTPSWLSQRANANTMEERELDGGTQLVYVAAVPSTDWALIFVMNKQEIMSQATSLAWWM

- Kd [1]: 3.4 ± 0.3 µM
- dTm at 1 mM [2]: 2.4 °C
SMILES: O=C(O)C[C@H](O)C(=O)O [L-malate]
